Data set [1] can be described thus: pH value of compound, salts and lyophilized preparations. It counts as physicochemical. The note with it: compound or its salts. The method, then:
The solution was stirred for 10 min, and then stood for adsorption for 20 min, followed by filtering with a 0.22 μm microfiltration membrane, and then was placed into 2 ml vials. Each vial was filled with 1 ml of the solution, which was then lyophilized to obtain the product at the specification of 20 mg/vial. The product was a white loose block, with a pH value of 4.10.
100) ml of water for injection was added at a low temperature (2-8° C.) to dissolve the compound, and 2.0 g of activated carbon for medicinal use was added. The solution was stirred for 10 min, and then stood for adsorption for 20 min, followed by filtering with a 0.22 μm microfiltration membrane, and then was placed into 2 ml vials. Each vial was filled with 1 ml of the solution, which was then lyophilized to obtain the product at the specification of 100 mg/vial.
100 ml of sodium dihydrogen phosphate-disodium hydrogen phosphate buffer (pH of 6.0) was added at a low temperature (2-8° C.) to dissolve the compound, and 0.5 g of activated carbon for medicinal use was added. The solution was stirred for 10 min, and then stood for adsorption for 20 min, followed by filtering with a 0.22 μm microfiltration membrane, and then was placed into 2 ml vials. Each vial was filled with 1 ml of the solution, which was then lyophilized to obtain the product at the specification of 200 mg/vial.

Data set [2] can be described thus: hygroscopicity experiments of various salts. It counts as physicochemical. The conditions noted are these: 25° C. ± 1° C.
The conditions of data set [3]: known platinum drugs; cited from earlier work.
Where [4] appears, read: relative humidity 44% ± 2%, 1 h.
The mark [5] stands for this setting: relative humidity 44% ± 2%, 24 h.
The mark [6] stands for this setting: relative humidity 69% ± 2%, 1 h.
[7] abbreviates: relative humidity 69% ± 2%, 24 h.

Turning to `CCN(CC)CCCCC1C(=O)[O][Pt][O]C1=O.N[C@@H]1CCCC[C@H]1N` [Example 1, (4-diethylamino)butylmalonato-(1R,2R)-(−)-1,2-cyclohexanediamine platinum(II)], the pH value entry in data set [1] is “greater than 10”.

Regarding `CCN(CC)CCCCC1C(=O)[O][Pt]2([NH][C@@H]3CCCC[C@H]3[NH]2)[O]C1=O.O=C(O)[C@H](O)[C@@H](O)C(=O)O` (stereo partly drawn) [L(+) tartrate salt, 2-(4-diethylamino)butylmalonato-(1R,2R)-(−)-1,2-cyclohexanediamine platinum(II) L-(+) tartrate], the Hygroscopicity in data set [2] (setting [4]) was found to be 4.88%; in data set [2] (setting [5]) it was 9.76%; in data set [2] (setting [6]), 5.78%; in data set [2] (setting [7]), 12.79%. Besides, the Status result in data set [2] (setting [4]) is given as “Viscous”; in data set [2] (setting [5]), “Light gray”; in data set [2] (setting [6]), “Viscous”; in data set [2] (setting [7]) it was “Light”.

Turning to `N.N.O=C([O-])C1(C(=O)[O-])CCC1.[Pt+2]` [carboplatin], the solubility – broadly, how much of the substance goes into solution per volume – in data set [3] was 17.8 mg/mL.

With `CCN(CC)CCCCC1C(=O)[O][Pt]2([NH][C@@H]3CCCC[C@H]3[NH]2)[O]C1=O.O=C(O)/C=C/C(=O)O` (stereo partly shown) [Fumarate salt], the Hygroscopicity worked out at 5.87% in data set [2] (setting [4]), 10.83% in data set [2] (setting [5]), 6.83% in data set [2] (setting [6]) and 13.90% in data set [2] (setting [7]). Moreover, the Status entry is recorded as “Viscous” in data set [2] (setting [4]), “Semi-” in data set [2] (setting [5]), “Viscous” in data set [2] (setting [6]) and “Semi-” in data set [2] (setting [7]).

As for `CCN(CC)CCCCC1C(=O)[O][Pt]2([NH][C@@H]3CCCC[C@H]3[NH]2)[O]C1=O.CS(=O)(=O)O` (stereo partly drawn) [Mesylate salt, 2-(4-diethylamino)butylmalonato-(1R,2R)-(−)-1,2-cyclohexanediamine platinum(II) mesylate], the Hygroscopicity in data set [2] (setting [4]) turned out to be 4.98%; in data set [2] (setting [5]), 9.89%; in data set [2] (setting [6]), 6.37%; in data set [2] (setting [7]) it was 13.89%. Further, the Status result in data set [2] (setting [4]) is reported as “Viscous”; in data set [2] (setting [5]), “Light gray”; in data set [2] (setting [6]) it was “Viscous”; in data set [2] (setting [7]) it was “Light gray”.

Regarding `CCN(CC)CCCCC1C(=O)[O][Pt]2([NH][C@@H]3CCCC[C@H]3[NH]2)[O]C1=O.Cc1ccc(S(=O)(=O)O)cc1` (stereo partly drawn) [Tosylate salt, 2-(4-diethylamino)butylmalonato-(1R,2R)-(−)-1,2-cyclohexanediamine platinum(II) tosylate], the Hygroscopicity was 4.56% in data set [2] (setting [4]), 8.78% in data set [2] (setting [5]), 5.30% in data set [2] (setting [6]) and 9.86% in data set [2] (setting [7]). Moreover, the Status entry in data set [2] (setting [4]) is “Viscous”; in data set [2] (setting [5]), “Light”; in data set [2] (setting [6]), “Viscous”; in data set [2] (setting [7]), “Light”.

The values are drawn from US11661434B2, “Phosphate of platinum compound and preparation method therefor” (Beijing Showby Pharmaceutical Co., LTD., priority 2018, dated 2023).
